# Laboratory results taken from ChEMBL document CHEMBL2440041, “5-Deazaflavin derivatives as inhibitors of p53 ubiquitination by HDM2” (Bioorg Med Chem, 2013).
# Biological target: E3 ubiquitin-protein ligase Mdm2 (Homo sapiens, UniProt Q00987)
# Sequence (Q00987 whole entry): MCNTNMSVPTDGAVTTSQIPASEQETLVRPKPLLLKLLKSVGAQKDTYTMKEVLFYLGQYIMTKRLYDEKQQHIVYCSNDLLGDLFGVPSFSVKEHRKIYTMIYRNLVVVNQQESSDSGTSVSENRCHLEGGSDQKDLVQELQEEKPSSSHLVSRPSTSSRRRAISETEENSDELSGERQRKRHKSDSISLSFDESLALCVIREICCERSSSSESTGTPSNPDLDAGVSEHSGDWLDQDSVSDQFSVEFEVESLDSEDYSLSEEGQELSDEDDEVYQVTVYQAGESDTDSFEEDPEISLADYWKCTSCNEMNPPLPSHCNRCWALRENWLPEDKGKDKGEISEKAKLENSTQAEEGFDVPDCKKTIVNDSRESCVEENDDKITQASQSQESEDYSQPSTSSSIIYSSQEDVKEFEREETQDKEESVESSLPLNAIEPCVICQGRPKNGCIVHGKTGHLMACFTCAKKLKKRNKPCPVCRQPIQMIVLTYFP
# Description: Inhibition of GST-tagged HDM2 (unknown origin) assessed as p53 ubiquitination by Western blot analysis
row,IC50 [µM],SMILES
1,> 100,O=c1nc2n(-c3ccc(Cl)cc3)c3ccc(C(F)(F)F)cc3cc-2c(=O)[nH]1
2,> 100,Cc1ccc2cc3c(=O)[nH]c(=O)nc-3n(-c3ccc(Cl)cc3)c2c1
3,> 100,O=c1nc2n(Cc3ccccc3)c3c(C(F)(F)F)cccc3cc-2c(=O)[nH]1
4,> 100,O=c1nc2n(-c3ccccc3F)c3ccc(Cl)cc3cc-2c(=O)[nH]1
5,> 100,O=c1nc2n(-c3ccccc3F)c3cc(C(F)(F)F)ccc3cc-2c(=O)[nH]1
6,> 100,O=c1nc2n(-c3ccccc3)c3c(Cl)cccc3cc-2c(=O)[nH]1
7,13.1,O=c1nc2n(-c3ccc(F)cc3)c3c(C(F)(F)F)cccc3cc-2c(=O)[nH]1
8,> 100,O=c1nc2n(-c3cccc(F)c3)c3c(Cl)cccc3cc-2c(=O)[nH]1

# The next lines start with the molecule.
row,SMILES,IC50 [µM]
1,O=c1nc2n(-c3ccc(Cl)cc3)c3ccc([N+](=O)[O-])cc3cc-2c(=O)[nH]1,> 75
2,O=c1nc2n(-c3ccc(Cl)cc3)c3c([N+](=O)[O-])cccc3cc-2c(=O)[nH]1,> 50
3,O=c1nc2n(-c3ccccc3F)c3c([N+](=O)[O-])cccc3cc-2c(=O)[nH]1,> 100
4,O=c1nc2n(-c3ccc(Cl)cc3)c3cccc(Cl)c3cc-2c(=O)[nH]1,> 100
5,O=c1nc2n(-c3ccc(Cl)cc3)c3cccc(C(F)(F)F)c3cc-2c(=O)[nH]1,> 100
6,O=c1nc2n(-c3ccc(Cl)cc3)c3cc(C(F)(F)F)ccc3cc-2c(=O)[nH]1,> 100
7,O=c1nc2n(-c3cccc(Cl)c3)c3c(Cl)cccc3cc-2c(=O)[nH]1,> 100
8,O=c1nc2n(-c3ccccc3)c3c(Br)cccc3cc-2c(=O)[nH]1,> 100
9,O=c1nc2n(-c3ccccc3F)c3c(C(F)(F)F)cccc3cc-2c(=O)[nH]1,19.6
